According to ChEMBL document CHEMBL3046942, “Synthesis and biological activity of new cycloalkylthiophene-Schiff bases and their Cr(III) and Zn(II) complexes” (2010):

Columns and labels:
Shigella boydii [1] = test: Antibacterial activity against Shigella boydii type 6 RSKK-96043 at 10 ug after 24 hr by agar well diffusion method; assay type: functional; settings: type 6 RSKK-96043, 24 h, read-out: DIZ
Shigella boydii [2] = test: Antibacterial activity against Shigella boydii type 16 at 10 ug after 24 hr by agar well diffusion method; assay type: functional; settings: type 16, 24 h, read-out: DIZ
Shigella boydii [3] = test: Antibacterial activity against Shigella boydii type 11 at 10 ug after 24 hr by agar well diffusion method; assay type: functional; settings: type 11, 24 h, read-out: DIZ
Salmonella typhimurium [4] = test: Antibacterial activity against Salmonella enterica subsp. enterica serovar Typhi H NCTC 901.8394 at 10 ug after 24 hr by agar well diffusion method; assay type: functional; settings: H NCTC 901.8394, 24 h, read-out: DIZ
Proteus [5] = test: Antibacterial activity against Proteus OX2 Wrah at 10 ug after 24 hr by agar well diffusion method; assay type: functional; settings: read-out: DIZ
Escherichia coli [6] = test: Antibacterial activity against Escherichia coli ATCC 1280 at 10 ug after 24 hr by agar well diffusion method; assay type: functional; settings: ATCC 1280, 24 h, read-out: DIZ
Pseudomonas putida [7] = test: Antibacterial activity against Pseudomonas putida at 10 ug after 24 hr by agar well diffusion method; assay type: functional; settings: read-out: DIZ
Listeria monocytogenes [8] = test: Antibacterial activity against Listeria monocytogenes ATCC 19115 at 10 ug after 24 hr by agar well diffusion method; assay type: functional; settings: ATCC 19115, 24 h, read-out: DIZ
Staphylococcus aureus [9] = test: Antibacterial activity against Staphylococcus aureus ATCC 25923 at 10 ug after 24 hr by agar well diffusion method; assay type: functional; settings: ATCC 25923, 24 h, read-out: DIZ
Shigella boydii [10] = test: Antibacterial activity against Shigella boydii type 6 RSKK-96043 at 30 ug after 24 hr by agar well diffusion method; assay type: functional; settings: type 6 RSKK-96043, 24 h, read-out: DIZ
Shigella boydii [11] = test: Antibacterial activity against Shigella boydii type 16 at 30 ug after 24 hr by agar well diffusion method; assay type: functional; settings: type 16, 24 h, read-out: DIZ
Shigella boydii [12] = test: Antibacterial activity against Shigella boydii type 11 at 30 ug after 24 hr by agar well diffusion method; assay type: functional; settings: type 11, 24 h, read-out: DIZ
Salmonella typhimurium [13] = test: Antibacterial activity against Salmonella enterica subsp. enterica serovar Typhi H NCTC 901.8394 at 30 ug after 24 hr by agar well diffusion method; assay type: functional; settings: H NCTC 901.8394, 24 h, read-out: DIZ
Proteus [14] = test: Antibacterial activity against Proteus OX2 Wrah at 30 ug after 24 hr by agar well diffusion method; assay type: functional; settings: read-out: DIZ
Pseudomonas putida [15] = test: Antibacterial activity against Pseudomonas putida at 30 ug after 24 hr by agar well diffusion method; assay type: functional; settings: read-out: DIZ
Escherichia coli [16] = test: Antibacterial activity against Escherichia coli ATCC 1280 at 30 ug after 24 hr by agar well diffusion method; assay type: functional; settings: ATCC 1280, 24 h, read-out: DIZ
Listeria monocytogenes [17] = test: Antibacterial activity against Listeria monocytogenes ATCC 19115 at 30 ug after 24 hr by agar well diffusion method; assay type: functional; settings: ATCC 19115, 24 h, read-out: DIZ
Staphylococcus aureus [18] = test: Antibacterial activity against Staphylococcus aureus ATCC 25923 at 30 ug after 24 hr by agar well diffusion method; assay type: functional; settings: ATCC 25923, 24 h, read-out: DIZ
Pseudomonas putida [19] = test: Antibacterial activity against Pseudomonas putida at 5 ug after 24 hr by agar well diffusion method; assay type: functional; settings: read-out: DIZ
Listeria monocytogenes [20] = test: Antibacterial activity against Listeria monocytogenes ATCC 19115 at 5 ug after 24 hr by agar well diffusion method; assay type: functional; settings: ATCC 19115, 24 h, read-out: DIZ
Shigella boydii [21] = test: Antibacterial activity against Shigella boydii type 6 RSKK-96043 at 5 ug after 24 hr by agar well diffusion method; assay type: functional; settings: type 6 RSKK-96043, 24 h, read-out: DIZ
Shigella boydii [22] = test: Antibacterial activity against Shigella boydii type 16 at 5 ug after 24 hr by agar well diffusion method; assay type: functional; settings: type 16, 24 h, read-out: DIZ
Shigella boydii [23] = test: Antibacterial activity against Shigella boydii type 11 at 5 ug after 24 hr by agar well diffusion method; assay type: functional; settings: type 11, 24 h, read-out: DIZ
Salmonella typhimurium [24] = test: Antibacterial activity against Salmonella enterica subsp. enterica serovar Typhi H NCTC 901.8394 at 5 ug after 24 hr by agar well diffusion method; assay type: functional; settings: H NCTC 901.8394, 24 h, read-out: DIZ
Proteus [25] = test: Antibacterial activity against Proteus OX2 Wrah at 5 ug after 24 hr by agar well diffusion method; assay type: functional; settings: read-out: DIZ
Staphylococcus aureus [26] = test: microbe, parasite or virus in culture; settings: ATCC 25923, 24 h, read-out: DIZ
Shigella boydii [27] = test: Antibacterial activity against Shigella boydii type 6 RSKK-96043 at 25 ug after 24 hr by agar well diffusion method; assay type: functional; settings: type 6 RSKK-96043, 24 h, read-out: DIZ
Shigella boydii [28] = test: Antibacterial activity against Shigella boydii type 16 at 25 ug after 24 hr by agar well diffusion method; assay type: functional; settings: type 16, 24 h, read-out: DIZ
Shigella boydii [29] = test: Antibacterial activity against Shigella boydii type 11 at 25 ug after 24 hr by agar well diffusion method; assay type: functional; settings: type 11, 24 h, read-out: DIZ
Salmonella typhimurium [30] = test: Antibacterial activity against Salmonella enterica subsp. enterica serovar Typhi H NCTC 901.8394 at 25 ug after 24 hr by agar well diffusion method; assay type: functional; settings: H NCTC 901.8394, 24 h, read-out: DIZ
Proteus [31] = test: Antibacterial activity against Proteus OX2 Wrah at 25 ug after 24 hr by agar well diffusion method; assay type: functional; settings: read-out: DIZ
Pseudomonas putida [32] = test: Antibacterial activity against Pseudomonas putida at 25 ug after 24 hr by agar well diffusion method; assay type: functional; settings: read-out: DIZ
Listeria monocytogenes [33] = test: Antibacterial activity against Listeria monocytogenes ATCC 19115 at 25 ug after 24 hr by agar well diffusion method; assay type: functional; settings: ATCC 19115, 24 h, read-out: DIZ
Staphylococcus aureus [34] = test: Antibacterial activity against Staphylococcus aureus ATCC 25923 at 25 ug after 24 hr by agar well diffusion method; assay type: functional; settings: ATCC 25923, 24 h, read-out: DIZ
Escherichia coli [35] = test: microbe, parasite or virus in culture; settings: ATCC 1280, 24 h, read-out: DIZ

## CC1(C)S[C@@H]2[C@H](NC(=O)[C@H](N)c3ccccc3)C(=O)N2[C@H]1C(=O)O [AMPICILLIN]
Shigella boydii [1]
  zone of inhibition at 10 µg/disc: 6 mm
Shigella boydii [2]
  zone of inhibition at 10 µg/disc: 16 mm
Shigella boydii [3]
  zone of inhibition at 10 µg/disc: 20 mm
Salmonella typhimurium [4]
  zone of inhibition at 10 µg/disc: 11 mm
Proteus [5]
  zone of inhibition at 10 µg/disc: 9 mm
Escherichia coli [6]
  zone of inhibition at 10 µg/disc: 10 mm
Pseudomonas putida [7]
  zone of inhibition at 10 µg/disc: 8 mm
Listeria monocytogenes [8]
  zone of inhibition at 10 µg/disc: 16 mm
Staphylococcus aureus [9]
  zone of inhibition at 10 µg/disc: 30 mm

## O=C(N[C@H](CO)[C@H](O)c1ccc([N+](=O)[O-])cc1)C(Cl)Cl [CHLORAMPHENICOL]
Shigella boydii [10]
  zone of inhibition at 30 µg/disc: 18 mm
Shigella boydii [11]
  zone of inhibition at 30 µg/disc: 22 mm
Shigella boydii [12]
  zone of inhibition at 30 µg/disc: 18 mm
Salmonella typhimurium [13]
  zone of inhibition at 30 µg/disc: 19 mm
Proteus [14]
  zone of inhibition at 30 µg/disc: 27 mm
Pseudomonas putida [15]
  zone of inhibition at 30 µg/disc: 12 mm
Escherichia coli [16]
  zone of inhibition at 30 µg/disc: 30 mm
Listeria monocytogenes [17]
  zone of inhibition at 30 µg/disc: 18 mm
Staphylococcus aureus [18]
  zone of inhibition at 30 µg/disc: 25 mm

## O=C(O)c1cn(C2CC2)c2cc(N3CCNCC3)c(F)cc2c1=O [CIPROFLOXACIN]
Pseudomonas putida [19]
  zone of inhibition at 5 µg/disc: 20 mm
Listeria monocytogenes [20]
  zone of inhibition at 5 µg/disc: 17 mm
Shigella boydii [21]
  zone of inhibition at 5 µg/disc: 30 mm
Shigella boydii [22]
  zone of inhibition at 5 µg/disc: 20 mm
Shigella boydii [23]
  zone of inhibition at 5 µg/disc: 25 mm
Salmonella typhimurium [24]
  zone of inhibition at 5 µg/disc: 23 mm
Proteus [25]
  zone of inhibition at 5 µg/disc: 27 mm
Staphylococcus aureus [26]
  zone of inhibition at 5 µg/disc: 25 mm

## NC[C@H]1O[C@H](O[C@H]2[C@H](O)[C@@H](O[C@H]3O[C@H](CO)[C@@H](O)[C@H](N)[C@H]3O)[C@H](N)C[C@@H]2N)[C@H](O)[C@@H](O)[C@@H]1O [KANAMYCIN]
Shigella boydii [10]
  zone of inhibition at 30 µg/disc: 15 mm
Shigella boydii [11]
  zone of inhibition at 30 µg/disc: 16 mm
Shigella boydii [12]
  zone of inhibition at 30 µg/disc: 14 mm
Salmonella typhimurium [13]
  zone of inhibition at 30 µg/disc: 20 mm
Proteus [14]
  zone of inhibition at 30 µg/disc: 25 mm
Pseudomonas putida [15]
  zone of inhibition at 30 µg/disc: 14 mm
Escherichia coli [16]
  zone of inhibition at 30 µg/disc: 25 mm
Listeria monocytogenes [17]
  zone of inhibition at 30 µg/disc: 15 mm
Staphylococcus aureus [18]
  zone of inhibition at 30 µg/disc: 25 mm

## Cc1cc(NS(=O)(=O)c2ccc(N)cc2)no1 [SULFAMETHOXAZOLE]
Shigella boydii [27]
  zone of inhibition at 25 µg/disc: 20 mm
Shigella boydii [28]
  zone of inhibition at 25 µg/disc: 20 mm
Shigella boydii [29]
  zone of inhibition at 25 µg/disc: 19 mm
Salmonella typhimurium [30]
  zone of inhibition at 25 µg/disc: 17 mm
Proteus [31]
  zone of inhibition at 25 µg/disc: 20 mm
Pseudomonas putida [32]
  zone of inhibition at 25 µg/disc: 18 mm
Listeria monocytogenes [33]
  zone of inhibition at 25 µg/disc: 11 mm
Staphylococcus aureus [34]
  zone of inhibition at 25 µg/disc: 24 mm
Escherichia coli [35]
  zone of inhibition at 25 µg/disc: 18 mm
